Experiments:
Format in all cases: cell-based
mouse growth hormone [1] = experiment: Real Time RT-PCR of growth hormone expression in TM3 cells; conditions: for effect on growth hormone expression (in words): TM3; for Growth Hormone Expression relative to Control: TM3, 1 μM; for change in growth hormone expression over time (in words): TM3, treated 20 minutes to 24 hours
Experimental: (§1) A mouse Leydig cell line, TM3, (ATCC) was seeded between 5 and 20 passages at a density of 10^5 cells/cm^2 onto 10 cm tissue culture plates. The cells were grown in F12/DME media supplemented with 5% horse serum, 2.5% fetal bovine serum, 100 U/ml penicillin, and 100 μg/ml streptomycin.
(§2) Cells were grown for 48 hours in 5% CO2 at 37° C. until they approached 80% confluency. Cells were washed with serum free DMEM and treated with either 1 μM […] (20HE), or methandrostenolone (synthetic anabolic steroid). Both compounds were dissolved in 70% ethanol and added to serum free media. Cells were incubated after treatment for 18 hours before RNA extraction.
(§3) Selected microarray results were verified by comparison with mRNA levels obtained by Real Time reverse transcription PCR (qRT-PCR). Selected gene-specific primer pairs were designed for the mouse growth hormone and glyceraldehyde-3-phosphate dehydrogenase genes using the Primer Express software, as shown in Table 3. Total RNA was isolated, DNase I-treated, and first-strand cDNA was synthesized using Stratascript reverse transcriptase with random primers. The PCR reactions were carried out using 500 ng of cDNA, 150 nM of each primer, and SYBR Green master mix in 25 μL reactions. Levels of quantitative reverse transcription product were measured using SYBR Green fluorescence collected during real-time PCR on a Stratagene MXP3000 sequence detection system. A control cDNA dilution series was created for each gene to establish a standard curve. Reverse transcriptase was excluded from control samples to identify potential genomic contamination. Each reaction was subjected to melting point analysis to confirm single amplified products. The data generated from each PCR were analyzed using MXP 3000 software.
(§4) Quantitative real time PCR was used to verify the microarray results for growth hormone. RNA samples from each treatment were reverse-transcribed into cDNA and amplified using real time PCR. Values for growth hormone were normalized to values obtained for the housekeeping gene, glyceraldehyde-3-phosphate dehydrogenase, and the ratios of the two treatments were calculated. In both the C2C12 and TM3 cell lines differential expression was qualitatively confirmed.
(§5) Using the ΔΔCt method, relative expression was calculated.
To further investigate the effects of 20-HE, the TM3 leydig cell line was treated for varying intervals, from 20 minutes to 24 hours, with either 20-HE or methandrostenolone. Growth hormone expression was than analyzed using real time PCR as mentioned earlier.

mouse growth hormone [2] = experiment: Real Time RT-PCR of growth hormone expression in C2C12 cells; conditions: for effect on growth hormone expression (in words): C2C12; for Growth Hormone Expression relative to Control: C2C12, 1 μM, Real Time RT-PCR, normalized to GAPDH
Experimental: (§6) A mouse skeletal muscle cell line, C2C12, (ATCC) was seeded between 4 and 20 passages at a density of 10^5 cells/cm^2 onto 10 cm tissue culture plates. The cells were grown in DMEM supplemented with 10% Fetal Bovine Serum, 10 mM HEPES, 6 mM Glutamine, 1 mM pyruvate, 100 U/ml penicillin, and 100 ug/ml streptomycin.
as §2, §3, §4, §5

[3] = tested on: TM3 mouse Leydig cell line; experiment: cDNA microarray comparison of transcription, 20HE vs methandrostenolone, TM3 cells; conditions: 18 hours
Experimental: (§7) A transcriptome approach utilizing cDNA microarray was implemented to observe the unique effects of ecdysteroids. Microarray analyses was developed and implemented to discern the transcriptional differences between ecdysteroids and anabolic steroids.
as §1, §2
(§8) RNA was extracted and purified from C2C12 myoblasts and TM3 Leydig tumor line cells using an RNeasy kit according to the manufacturer's instructions (Qiagen). RNA concentration and purity were assessed using a spectrophotometer. All RNA samples used had 260/280 ratios greater than 1.9.
(§9) A collection of 21,900 oligonucleotides was purchased from Compugen, Inc. Microarrays were printed on poly-L-lysine-coated glass slides using an OmniGrid microarrayer (GeneMachines, San Carlos, Calif.) and quill-type printing pins (Telichem, Sunnyvale, Calif.) following standard procedures. Fluorescent probes were prepared from 5 μg of total cellular RNA using the Genisphere 3DNA dendrimer system (Genisphere, Inc., Montvale, N.J.). Two separate microarrays, one for each cell line, were run. The ecdysone treated RNA sample was labeled with Cy3 and the methandrostenelone treated RNA sample was labeled with Cy5 in a parallel reaction, mixed, and hybridized to the chips. Automated microarray hybridization and washing were performed using a Ventana Discovery System. The sequence-tagged target was hybridized for 12 hours at 58° C., and microarrays were washed twice in […] for 10 minutes at 55° C. and once in […] for 2 minutes at 42° C. Florescent dendrimer was then applied and incubated at 55° C. for 2 hours. The microarrays were then washed with […] and spin-dried, followed by scanning on an Axon GenePix 4000B. Image files were processed using Axon GenePix 4.0 software, resulting in text files containing median fluorescence intensities as well as median local backgrounds. Normalized data were imported along with spot flag information into GeneSpring where the ratios were calculated.

[4] = tested on: C2C12 mouse skeletal muscle cell line; experiment: cDNA microarray comparison of transcription, 20HE vs methandrostenolone, C2C12 cells; conditions: 18 hours
Experimental: as §7, §6, §2, §8, §9

[5] = Real Time RT-PCR, normalized to GAPDH

Structure (SMILES): C[C@]12C=CC(=O)C=C1CC[C@@H]1[C@@H]2CC[C@@]2(C)[C@H]1CC[C@]2(C)O [Methandrostenolone, methandrostenolone, reference compound]
- effect on growth hormone expression (in words) (mouse growth hormone [1]): little or no effect
- Growth Hormone Expression relative to Control (mouse growth hormone [1]; [5]): 2.3 ± 1.4
- Growth Hormone Expression relative to Control (mouse growth hormone [1]; incubation time 20 m): 1.2
- Growth Hormone Expression relative to Control (mouse growth hormone [1]; incubation time 45 m): 1.9
- Growth Hormone Expression relative to Control (mouse growth hormone [1]; incubation time 1 hr): 2.5
- Growth Hormone Expression relative to Control (mouse growth hormone [1]; incubation time 2 hr): 1.7
- Growth Hormone Expression relative to Control (mouse growth hormone [1]; incubation time 4 hr): 2.1
- Growth Hormone Expression relative to Control (mouse growth hormone [1]; incubation time 24 hr): 2.3
- change in growth hormone expression over time (in words) (mouse growth hormone [1]): very little change
- effect on growth hormone expression (in words) (mouse growth hormone [2]): little or no effect
- Growth Hormone Expression relative to Control (mouse growth hormone [2]): 0.8 ± 0.5

Structure (SMILES): CC(C)(O)CC[C@@H](O)[C@](C)(O)[C@H]1CC[C@@]2(O)C3=CC(=O)[C@@H]4C[C@@H](O)[C@@H](O)C[C@]4(C)[C@H]3CC[C@]12C [20-Hydroxyecdysone, 20-hydroxyecdysone]
- 20E/D Expr: Growth hormone ([3]; TM3, 1 μM, expression ratio 20HE to methandrostenolone, LL 14599): 7.006
- 20E/D Expr: Insulin II ([3]; TM3, 1 μM, expression ratio 20HE to methandrostenolone, LL 16334): 0.262
- 20E/D Expr: Nuclear receptor subfamily 4, group A, member 2 ([3]; TM3, 1 μM, expression ratio 20HE to methandrostenolone, LL 18227): 0.010
- 20E/D Expr: Chemokine (C-C motif) ligand 20 ([3]; TM3, 1 μM, expression ratio 20HE to methandrostenolone, LL 20297): 11.89
- 20E/D Expr: Signal transducer and activator of transcription 1 ([3]; TM3, 1 μM, expression ratio 20HE to methandrostenolone, LL 20846): 0.052
- 20E/D Expr: Steroid sulfatase ([3]; TM3, 1 μM, expression ratio 20HE to methandrostenolone, LL 20905): 4.611
- 20E/D Expr: Insulin receptor-related receptor ([3]; TM3, 1 μM, expression ratio 20HE to methandrostenolone, LL 23920): 0.022
- 20E/D Expr: Osteomodulin ([3]; TM3, 1 μM, expression ratio 20HE to methandrostenolone, LL 27047): 0.010
- 20E/D Expr: Ndufs3 ([3]; TM3, 1 μM, expression ratio 20HE to methandrostenolone, LL 68349): 4.741
- genes down-regulated more than 2 fold as compared to methandrostenolone ([3]; TM3, microarray, 1 μM): 341 genes
- genes up-regulated more than 2 fold as compared to methandrostenolone ([3]; TM3, microarray, 1 μM): 287 genes
- increase of growth hormone expression more than methandrostenolone ([3]; TM3, microarray, 1 μM): 7.0 times
- 20E/D Expr: Annexin A5 ([4]; C2C12, 1 μM, expression ratio 20HE to methandrostenolone, LL 11747): 11.90
- 20E/D Expr: Cholecystokinin ([4]; C2C12, 1 μM, expression ratio 20HE to methandrostenolone, LL 12424): 0.010
- 20E/D Expr: Fas death domain-associated protein ([4]; C2C12, 1 μM, expression ratio 20HE to methandrostenolone, LL 13163): 0.010
- 20E/D Expr: Fibroblast growth factor 11 ([4]; C2C12, 1 μM, expression ratio 20HE to methandrostenolone, LL 14166): 0.010
- 20E/D Expr: Growth hormone ([4]; C2C12, 1 μM, expression ratio 20HE to methandrostenolone, LL 14599): 3.163
- 20E/D Expr: Histocompatibility 2, D region locus 1 ([4]; C2C12, 1 μM, expression ratio 20HE to methandrostenolone, LL 14964): 6.771
- 20E/D Expr: Hexokinase 2 ([4]; C2C12, 1 μM, expression ratio 20HE to methandrostenolone, LL 15277): 0.010
- 20E/D Expr: mago-nashi homolog, proliferation-associated ([4]; C2C12, 1 μM, expression ratio 20HE to methandrostenolone, LL 17149): 3.708
- 20E/D Expr: Insulin receptor-related receptor ([4]; C2C12, 1 μM, expression ratio 20HE to methandrostenolone, LL 23920): 0.020
- genes down-regulated more than two fold as compared to methandrostenolone ([4]; C2C12, microarray, 1 μM): 479 genes
- genes up-regulated more than 2-fold as compared to methandrostenolone ([4]; C2C12, microarray, 1 μM): 278 genes
- increase of growth hormone expression more than methandrostenolone ([4]; C2C12, microarray, 1 μM): 3.2 times
- effect on growth hormone expression (in words) (mouse growth hormone [1]): increased expression of GH
- Growth Hormone Expression relative to Control (mouse growth hormone [1]; [5]): 7.1 ± 1.2
- Growth Hormone Expression relative to Control (mouse growth hormone [1]; incubation time 20 m): 0.9
- Growth Hormone Expression relative to Control (mouse growth hormone [1]; incubation time 45 m): 3.5
- Growth Hormone Expression relative to Control (mouse growth hormone [1]; incubation time 1 hr): 7.3
- Growth Hormone Expression relative to Control (mouse growth hormone [1]; incubation time 2 hr): 6.9
- Growth Hormone Expression relative to Control (mouse growth hormone [1]; incubation time 4 hr): 7.2
- Growth Hormone Expression relative to Control (mouse growth hormone [1]; incubation time 24 hr): 7
- change in growth hormone expression over time (in words) (mouse growth hormone [1]): increased growth hormone expression over time, beginning after 45 minute and remaining increased after 24 hours
- effect on growth hormone expression (in words) (mouse growth hormone [2]): increased expression of GH
- Growth Hormone Expression relative to Control (mouse growth hormone [2]): 3.9 ± 0.9

Source: patent US8377915B2, “Methods for treating or preventing disorders using ecdysteroid compositions” (Rutgers, The State University of New Jersey, priority 2006, dated 2013)
